# In PubChem BioAssay AID192 (DTP/NCI, 2004):
# “And” between values parts separate entries of the source, which are not always exact repeats. Equal values may be shown once. Toxic doses and inconclusive results are not listed.
# Tested on: BDF1 mice, B16 melanoma ip, median survival T/C
# Experiment: NCI In Vivo Anticancer Drug Screen. Data for tumor model B16 Melanoma (intraperitoneal) in B6D2F1 (BDF1) mice
# Settings: endpoint: median survival time, higher = longer survival
# Method: The antitumor activity of compounds was measured in mice bearing transplantable tumors. Survival or tumor size were measured and the results are expressed as the measurement made in the treated group (T) divided by the measurement made in the vehicle treated control group (C). The tumor model used in this assay is B16 Melanoma (intraperitoneal) in B6D2F1 (BDF1) mice
# [1] = dose: 50.0 mg/kg/injection, schedule: Q04DX003 (ip), vehicle: Klucel (hydroxypropylcellulose) (HPC)
# [2] = dose: 100.0 mg/kg/injection, schedule: Q04DX003 (ip), vehicle: Klucel (hydroxypropylcellulose) (HPC)
# [3] = dose: 12.5 mg/kg/injection, schedule: Q01DX009 (ip), vehicle: saline
# [4] = dose: 25.0 mg/kg/injection, schedule: Q01DX009 (ip), vehicle: saline
# [5] = dose: 50.0 mg/kg/injection, schedule: Q01DX009 (ip), vehicle: saline
# [6] = dose: 200.0 mg/kg/injection, schedule: Q01DX009 (ip), vehicle: saline
structure (smiles),measurement,setting,value
C=C1CC(OC(=O)C(C)(O)CCl)C2C(=C)C(=O)OC2C2C1CC(O)C2(O)CCl (stereo not given),T/C,"dose: 3.0 mg/kg/injection, schedule: Q01DX009 (ip), vehicle: Klucel (hydroxypropylcellulose) (HPC)",104 % of control
same,T/C,"dose: 6.0 mg/kg/injection, schedule: Q01DX009 (ip), vehicle: Klucel (hydroxypropylcellulose) (HPC)",101 % of control
same,T/C,"dose: 12.0 mg/kg/injection, schedule: Q01DX009 (ip), vehicle: Klucel (hydroxypropylcellulose) (HPC)",101 % of control
same,T/C,"dose: 24.0 mg/kg/injection, schedule: Q01DX009 (ip), vehicle: Klucel (hydroxypropylcellulose) (HPC)",93 % of control
CC1(CO)C(O)CCC2(C)C1CCC1CC3CC12CCC3(O)CO (stereo not given),T/C,"dose: 0.78 mg/kg/injection, schedule: Q03HX020 (oral), vehicle: Klucel (hydroxypropylcellulose) (HPC)",97 % of control
same,T/C,"dose: 1.56 mg/kg/injection, schedule: Q03HX020 (oral), vehicle: Klucel (hydroxypropylcellulose) (HPC)",107 % of control
same,T/C,"dose: 3.12 mg/kg/injection, schedule: Q03HX020 (ip), vehicle: Klucel (hydroxypropylcellulose) (HPC)",89 % of control
same,T/C,"dose: 3.12 mg/kg/injection, schedule: Q03HX020 (oral), vehicle: Klucel (hydroxypropylcellulose) (HPC)",99 % of control
same,T/C,"dose: 6.25 mg/kg/injection, schedule: Q03HX020 (ip), vehicle: Klucel (hydroxypropylcellulose) (HPC)",108 % of control
same,T/C,"dose: 6.25 mg/kg/injection, schedule: Q03HX020 (oral), vehicle: Klucel (hydroxypropylcellulose) (HPC)",102 % of control
same,T/C,"dose: 12.5 mg/kg/injection, schedule: Q03HX020 (ip), vehicle: Klucel (hydroxypropylcellulose) (HPC)",118 % of control
same,T/C,"dose: 12.5 mg/kg/injection, schedule: Q03HX020 (oral), vehicle: Klucel (hydroxypropylcellulose) (HPC)",99 % of control
same,T/C,"dose: 25.0 mg/kg/injection, schedule: Q03HX020 (ip), vehicle: Klucel (hydroxypropylcellulose) (HPC)",115 % of control
same,T/C,"dose: 25.0 mg/kg/injection, schedule: Q03HX020 (oral), vehicle: Klucel (hydroxypropylcellulose) (HPC)",98 % of control
same,T/C,"dose: 25.0 mg/kg/injection, schedule: Q04DX003 (ip), vehicle: Klucel (hydroxypropylcellulose) (HPC)",100 % of control
same,T/C,"dose: 50.0 mg/kg/injection, schedule: Q03HX020 (ip), vehicle: Klucel (hydroxypropylcellulose) (HPC)",176 % of control
same,T/C,"dose: 50.0 mg/kg/injection, schedule: Q03HX020 (oral), vehicle: Klucel (hydroxypropylcellulose) (HPC)",104 % of control
same,T/C,[1],105 % of control
same,T/C,"dose: 100.0 mg/kg/injection, schedule: Q03HX020 (oral), vehicle: Klucel (hydroxypropylcellulose) (HPC)",117 % of control
same,T/C,[2],117 % of control
same,T/C,"dose: 400.0 mg/kg/injection, schedule: Q04DX003 (ip), vehicle: Klucel (hydroxypropylcellulose) (HPC)",163 % of control
COC(=O)CC(N)C(=O)O (stereo not given),T/C,[3],101 % of control
same,T/C,[4],103 % of control
same,T/C,[5],113 % of control
same,T/C,"dose: 100.0 mg/kg/injection, schedule: Q01DX009 (ip), vehicle: saline",104 % of control
same,T/C,[6],89 % of control
Cc1ccccc1NC(=O)Nc1cccc(C)c1C,T/C,[1],90 % of control
same,T/C,[2],96 % of control
same,T/C,"dose: 200.0 mg/kg/injection, schedule: Q04DX003 (ip), vehicle: Klucel (hydroxypropylcellulose) (HPC)",93 % of control
CC(C)CC(NC(=O)CNC(=O)/C=C/c1ccco1)C(N)=O (stereo not given),T/C,"dose: 6.25 mg/kg/injection, schedule: Q01DX009 (ip), vehicle: saline with Tween-80",105 % of control
same,T/C,"dose: 6.25 mg/kg/injection, schedule: Q01DX009 (ip), vehicle: saline",106 % of control
same,T/C,"dose: 12.5 mg/kg/injection, schedule: Q01DX009 (ip), vehicle: saline with Tween-80",105 % of control
same,T/C,[3],100 % of control
same,T/C,"dose: 25.0 mg/kg/injection, schedule: Q01DX009 (ip), vehicle: saline with Tween-80",110 % of control
same,T/C,[4],95 % of control
same,T/C,"dose: 50.0 mg/kg/injection, schedule: Q01DX009 (ip), vehicle: saline with Tween-80",100 % of control and 105 % of control
same,T/C,[5],97 % of control
same,T/C,"dose: 100.0 mg/kg/injection, schedule: Q01DX009 (ip), vehicle: saline with Tween-80",92 % of control
same,T/C,"dose: 200.0 mg/kg/injection, schedule: Q01DX009 (ip), vehicle: saline with Tween-80",98 % of control
O=C1Nc2ccccc2/C1=C\c1ccccc1O,T/C,"dose: 1.56 mg/kg/injection, schedule: Q01DX009 (ip), vehicle: Klucel (hydroxypropylcellulose) (HPC)",106 % of control
same,T/C,"dose: 3.12 mg/kg/injection, schedule: Q01DX009 (ip), vehicle: Klucel (hydroxypropylcellulose) (HPC)",106 % of control
same,T/C,"dose: 6.25 mg/kg/injection, schedule: Q01DX009 (ip), vehicle: Klucel (hydroxypropylcellulose) (HPC)",91 % of control
same,T/C,"dose: 12.5 mg/kg/injection, schedule: Q01DX009 (ip), vehicle: Klucel (hydroxypropylcellulose) (HPC)",105 % of control
same,T/C,"dose: 25.0 mg/kg/injection, schedule: Q01DX009 (ip), vehicle: Klucel (hydroxypropylcellulose) (HPC)",89 % of control
O=c1[nH]cc(B(O)O)c(=O)[nH]1,T/C,[6],118 % of control
